# Measured values from patent US10448639B2, “Fungicidal pyrazoles” (FMC CORPORATION, priority 2009, dated 2019).
# Marks after values point to notes of the source that are not given here.
# Columns and labels:
# [1] = system: Puccinia recondita f. sp. tritici; assay: Test I: wheat leaf rust, preventive spray on wheat seedlings, visual disease rating
# Botrytis cinerea = assay: Test B: tomato Botrytis, preventive spray on tomato seedlings, visual disease rating
# Septoria tritici = assay: Test G: wheat leaf blotch, preventive spray on wheat seedlings, visual disease rating
# Alternaria solani = assay: Test C: tomato early blight, preventive spray on tomato seedlings, visual disease rating
# [2] = system: Erysiphe graminis f sp. tritici; assay: Test J: wheat powdery mildew, preventive spray on wheat seedlings, visual disease rating; details: for Test J rating (% disease control): 100 = 100% disease control
# Septoria nodorum = assay: Test F: Septoria glume blotch, preventive spray on wheat seedlings, visual disease rating
# [3] = system: Puccinia recondita f. sp. tritici; assay: Test H: wheat leaf rust, curative spray on inoculated wheat seedlings, visual disease rating
# Excerpt: General protocol for preparing test suspensions for Tests A-J: the test compounds were first dissolved in acetone in an amount equal to 3% of the final volume and then suspended at the desired concentration (in ppm) in acetone and purified water (50/50 mix by volume) containing 250 ppm of the surfactant Trem® 014 (polyhydric alcohol esters). The resulting test suspensions were then used in Tests A-J. Spraying a 200 ppm test suspension to the point of run-off on the test plants was the equivalent of a rate of 500 g/ha. Unless otherwise indicated, the rating values indicate a 200 ppm test suspension was used. (An asterisk “*” next to the rating value indicates a 40 ppm test suspension was used.)
# Wheat seedlings were inoculated with a spore suspension of Puccinia recondita f. sp. tritici (the causal agent of wheat leaf rust) and incubated in a saturated atmosphere at 20° C. for 24 h, and then moved to a growth chamber at 20° C. for 2 days. At the end of this time the test suspension was sprayed to the point of run-off, and then the seedlings were moved to a growth chamber at 20° C. for 6 days after which time visual disease ratings were made.
# [4] = wheat leaf rust, preventive, 100 = 100% disease control, 0 = no control relative to controls
# [5] = tomato Botrytis, 100 = 100% disease control, 0 = no control relative to controls
# [6] = wheat leaf blotch, 100 = 100% disease control, 0 = no control relative to controls
# [7] = tomato early blight, 100 = 100% disease control, 0 = no control relative to controls
# [8] = wheat powdery mildew, 0 = no control relative to controls
# [9] = Septoria glume blotch, 100 = 100% disease control, 0 = no control relative to controls
# [10] = wheat leaf rust, curative, 100 = 100% disease control, 0 = no control relative to controls
# [11] = wheat leaf rust, preventive spray, 100 = 100% disease control, 0 = no control
# [12] = tomato Botrytis, preventive spray, 100 = 100% disease control, 0 = no control
# [13] = wheat leaf blotch, preventive spray, 100 = 100% disease control, 0 = no control
# [14] = tomato early blight, preventive spray, 100 = 100% disease control, 0 = no control
# [15] = wheat powdery mildew, preventive spray, 0 = no control
# [16] = Septoria glume blotch on wheat, preventive spray, 100 = 100% disease control, 0 = no control
# [17] = wheat leaf rust, curative spray, 100 = 100% disease control, 0 = no control
smiles,measurement,setting,value
"Cc1nn(C)c(Oc2cc(F)c(C#N)cc2F)c1-c1ccc(F)cc1Cl [Compound 148, 4-[[4-(2-chloro-4-fluorophenyl)-1,3-dimethyl-1H-pyrazol-5-yl]oxy]-2,5-difluorobenzonitrile]",pest or weed control at 200 µg/mL,"[1]; 192 h, read-out: Test I rating (% disease control)",100%
same,pest or weed control at 200 µg/mL,"Botrytis cinerea; Botrytis cinerea, in Solanum lycopersicum, 120 h, read-out: Test B rating (% disease control)",99%
same,pest or weed control at 200 µg/mL,"Septoria tritici; Zymoseptoria tritici, in Triticum aestivum, 504 h, read-out: Test G rating (% disease control)",100%
same,pest or weed control at 200 µg/mL,"Alternaria solani; Alternaria solani, in Solanum lycopersicum, 168 h, read-out: Test C rating (% disease control)",99%
same,pest or weed control at 200 µg/mL,"[2]; Blumeria graminis, in Triticum aestivum, 192 h, read-out: Test J rating (% disease control)",99%
same,pest or weed control at 200 µg/mL,"Septoria nodorum; Parastagonospora nodorum, in Triticum aestivum, 192 h, read-out: Test F rating (% disease control)",100%
same,pest or weed control at 200 µg/mL,"[3]; 144 h, read-out: Test H rating (% disease control)",61%
Cc1ccc(Oc2c(-c3c(F)cc(F)cc3F)c(C)nn2C)cc1F [compound 187],Test I rating (% disease control),[1]; [4],9%
same,Test B rating (% disease control),Botrytis cinerea; [5],33%
same,Test G rating (% disease control),Septoria tritici; [6],20%
same,Test C rating (% disease control),Alternaria solani; [7],0%
same,Test J rating (% disease control),[2]; [8],13%
same,Test F rating (% disease control),Septoria nodorum; [9],0%
same,Test H rating (% disease control),[3]; [10],0%
Cc1nn(C)c(Nc2ccc(F)cc2)c1-c1ccccc1C(F)(F)F [compound 237],Test I rating (% disease control),[1]; [4],68%
same,Test B rating (% disease control),Botrytis cinerea; [5],99%
same,Test G rating (% disease control),Septoria tritici; [6],97%
same,Test C rating (% disease control),Alternaria solani; [7],0%
same,Test J rating (% disease control),[2]; [8],97%
same,Test F rating (% disease control),Septoria nodorum; [9],0%
same,Test H rating (% disease control),[3]; [10],0%
COc1cc(F)c(Nc2c(-c3cccc(Cl)c3)c(C)nn2C)c(F)c1 [compound 25],Test I rating (% disease control),[1]; [11],94%
same,Test B rating (% disease control),Botrytis cinerea; [12],100%
same,Test G rating (% disease control),Septoria tritici; [13],100%
same,Test C rating (% disease control),Alternaria solani; [14],0%
same,Test J rating (% disease control),[2]; [15],79%
same,Test F rating (% disease control),Septoria nodorum; [16],0%
same,Test H rating (% disease control),[3]; [17],0%
Cc1nn(C)c(Nc2ccc(Cl)cc2)c1-c1c(F)cc(C#N)cc1F [compound 110],Test I rating (% disease control),[1]; [11],97%
same,Test B rating (% disease control),Botrytis cinerea; [12],99%
same,Test G rating (% disease control),Septoria tritici; [13],99%
same,Test C rating (% disease control),Alternaria solani; [14],66%
same,Test J rating (% disease control),[2]; [15],94%
same,Test F rating (% disease control),Septoria nodorum; [16],98%
same,Test H rating (% disease control),[3]; [17],0%
Cc1nn(C)c(Oc2ccc(C#N)c(C#N)c2)c1-c1ccc(F)cc1Cl [compound 168],Test I rating (% disease control),[1]; [4],0%
same,Test B rating (% disease control),Botrytis cinerea; [5],14%
same,Test G rating (% disease control),Septoria tritici; [6],33%
same,Test C rating (% disease control),Alternaria solani; [7],0%
same,Test J rating (% disease control),[2]; [8],0%
same,Test F rating (% disease control),Septoria nodorum; [9],0%
same,Test H rating (% disease control),[3]; [10],0%
COc1ccc(Nc2c(-c3ccc(Cl)cc3)c(C)nn2C)cc1 [compound 56],Test I rating (% disease control),[1]; [11],28%
same,Test B rating (% disease control),Botrytis cinerea; [12],43%
same,Test G rating (% disease control),Septoria tritici; [13],99%
same,Test C rating (% disease control),Alternaria solani; [14],0%
same,Test J rating (% disease control),[2]; [15],64%
same,Test F rating (% disease control),Septoria nodorum; [16],0%
same,Test H rating (% disease control),[3]; [17],0%
COc1cc(F)c(-c2c(C)nn(C)c2Oc2ccc(Cl)cn2)c(F)c1 [compound 47],"Test I rating (% disease control), value marked *","[1]; wheat leaf rust, preventive spray, rating marked with asterisk (different test condition, key not given)",96* %
same,"Test B rating (% disease control), value marked *","Botrytis cinerea; tomato Botrytis, preventive spray, rating marked with asterisk (different test condition, key not given)",100* %
same,"Test G rating (% disease control), value marked *","Septoria tritici; wheat leaf blotch, preventive spray, rating marked with asterisk (different test condition, key not given)",99* %
same,"Test C rating (% disease control), value marked *","Alternaria solani; tomato early blight, preventive spray, rating marked with asterisk (different test condition, key not given)",87* %
same,"Test J rating (% disease control), value marked *","[2]; wheat powdery mildew, preventive spray, rating marked with asterisk (different test condition, key not given)",99* %
same,"Test F rating (% disease control), value marked *","Septoria nodorum; Septoria glume blotch, preventive spray, rating marked with asterisk (different test condition, key not given)",0* %
same,"Test H rating (% disease control), value marked *","[3]; wheat leaf rust, curative spray, rating marked with asterisk (different test condition, key not given)",37* %
COc1ccc(-c2c(C)nn(C)c2Nc2ncc(Cl)cc2Cl)c(Cl)c1 [compound 267],Test I rating (% disease control),[1]; [4],96%
same,Test B rating (% disease control),Botrytis cinerea; [5],100%
same,Test G rating (% disease control),Septoria tritici; [6],100%
same,Test C rating (% disease control),Alternaria solani; [7],79%
same,Test J rating (% disease control),[2]; [8],93%
same,Test F rating (% disease control),Septoria nodorum; [9],60%
same,Test H rating (% disease control),[3]; [10],0%
COc1cc(Cl)c(Nc2c(-c3ccc(F)cc3Br)c(C)nn2C)c(Cl)c1 [compound 323],Test I disease control rating,"[1]; wheat leaf rust, sprayed the day before inoculation, 100 = 100% disease control, 0 = no disease control relative to controls",94%
same,Test B disease control rating,"Botrytis cinerea; tomato Botrytis, 100 = 100% disease control, 0 = no disease control relative to controls",98%
same,Test G disease control rating,"Septoria tritici; wheat leaf blotch, sprayed the day before inoculation, 100 = 100% disease control, 0 = no disease control relative to controls",98%
same,Test C disease control rating,"Alternaria solani; tomato early blight, 100 = 100% disease control, 0 = no disease control relative to controls",0%
same,Test F disease control rating,"Septoria nodorum; Septoria glume blotch on wheat, 100 = 100% disease control, 0 = no disease control relative to controls",0%
same,Test H disease control rating,"[3]; wheat leaf rust, sprayed after inoculation, 100 = 100% disease control, 0 = no disease control relative to controls",0%
COc1cc(Cl)c(Nc2c(-c3ccc(F)cc3Cl)c(C)nn2C)c(Cl)c1 [compound 296],Test I rating (% disease control),[1]; [4],99%
same,Test B rating (% disease control),Botrytis cinerea; [5],99%
same,Test G rating (% disease control),Septoria tritici; [6],100%
same,Test C rating (% disease control),Alternaria solani; [7],0%
same,Test F rating (% disease control),Septoria nodorum; [9],0%
same,Test H rating (% disease control),[3]; [10],0%
